In data set [1] the test system is confluent Caco-2 cell layers. Nature of the data set: Transport of nutrients and bisphosphonates through confluent Caco-2 cell layers in two-compartment transport system, in presence of sphingolipid. Type of data set: in vitro ADME, human. The note with it: for Transport velocity of testosterone / Velocity measured/Control velocity, testosterone: nutrient testosterone 10 μM. The method, then:
GlySar, mannitol, testosterone, caffeine and cholesterol were tested at a concentration of 10 μM. This concentration was reached by mixing “cold” and radioactively labeled test substrate (mannitol, testosterone and cholesterol) or by testing the radioactively labeled substrate alone (GlySar and caffeine).
In general, the experiments were carried out in the presence and in the absence of 0.03 wt. % of bile. If bile was used in an experiment, this is explicitly stated in the results.
For the present transport studies, Caco-2 cells (passage 34) were seeded on semi-permeable filter inserts (12-well Transwell™ plates, 0.4 μm pores, Corning Costar) at 100,000 cells.per filter (growth surface 1.13 cm^2 containing 2.5 ml of culture medium). The number of cells was counted using a Bürker-Türk count chamber. The cells on the inserts were grown for 21 days at 37° C. in a humidified incubator in an atmosphere of air containing 5% of CO2. During such a culture period, the cells undergo an enterocyte-like differentiation.
Three filter inserts were used per experimental group.
The radioactivity in all samples was determined as DPM (disintegrations per minute), using an LKB/Wallac S1409 scintillation counter. The amount of radioactivity was determined in the 100-μl samples of the dose compartments and in the 500-μl samples of the receptor compartments.
In the experiments whose results are shown in Table 1, phytosphingosine was added as 0.02 wt. % (0.6 μM), ceramide III as 0.02 wt. % (0.3 μM), lysosphingomyelin as 0.008 wt. % (0.2 μM), sphinganine as 0.02 wt. % (0.6 μM) sphingosine as 0.02 wt. % (0.6 μM), egg sphingomyelin as 0.02 wt. % (0.3 μM) and glucosylceramide III as 0.02 wt. % (0.3 μM).
In general terms: Caco-2 monolayers are a common model of the intestinal barrier.

A further data set deals with Caco-2 cell layers. Nature of the data set: Transport of the lipids themselves from apical to basolateral side of Caco-2 cell layer. The note with it: 19 μg/ml lysosphingomyelin or 16.6 μg/ml phytosphingosine added to apical compartment.
Where [2] appears, read: bisphosphonate EB1053 10 μM, no bile, lysosphingomyelin 0.008 wt. %.
Where [3] appears, read: bisphosphonate EB1053 at 10× conc., no bile, lysosphingomyelin 0.008 wt. %.
Setting [4] is: bisphosphonate d-ADP 10 μM, no bile, lysosphingomyelin 0.008 wt. %.
[5] abbreviates: bisphosphonate d-ADP at 10× conc., no bile, lysosphingomyelin 0.008 wt. %.
[6] abbreviates: nutrient GlySar 10 μM, additive 0.03% bile, lysosphingomyelin 0.008 wt. %.
[7] abbreviates: nutrient caffeine 10 μM, additive 0.03% bile, lysosphingomyelin 0.008 wt. %.
Where [8] appears, read: nutrient cholesterol 10 μM, additive 0.03% bile, test lipid 0.02 wt. % (lysosphingomyelin 0.008 wt. %).
Setting [9] is: nutrient mannitol 10 μM, additive 0.03% bile, lysosphingomyelin 0.008 wt. %.
[10] abbreviates: additive 0.03% bile, lysosphingomyelin 0.008 wt. %.
[11] abbreviates: no bile, test lipid 0.02 wt. % (lysosphingomyelin 0.008 wt. %).

Experimental for Caco-2 cell monolayers: After 21 days of cell culture, the transepithelial electrical resistance (TEER) of the monolayers was used to check on the growth and differentiation of the Caco-2 cells on the filters (Duizer et al., J. Contr. Release 49: 39-49, 1997). The TEER is a measure for the differentiation status of the monolayer and was measured by means of the Millicell-ERS epithelial volt ohm meter (Millipore Co., Bedford, USA). Only monolayers having a TEER higher than 500 Ω.cm^−2 were used in the transport experiments.
Three filter inserts were used per experimental group. The integrity of all monolayers of Caco-2 cells used in this study was determined by measuring the transepithelial electrical resistance (TEER).

With `CCCCCCCCCCCCC/C=C/[C@@H](O)[C@@H](N)COP(=O)([O-])OCC[N+](C)(C)C` [lysosphingomyelin, sphingosyl-phosphorylcholine], in data set [1] (setting [2]), the “Transport velocity of EB1053” value was 371 ± 17 cm · hour^−1 × 10^−7 and the “Velocity measured/Control velocity, EB1053” value came to 12.2. In addition, in data set [1] (setting [3]), the “Transport velocity of EB1053 (10× conc.)” value stood at 414 ± 13 cm · hour^−1 × 10^−7 and the “Velocity measured/Control velocity, EB1053 (10× conc.)” value is recorded as 12.1. Besides, in data set [1] (setting [4]), the “Transport velocity of d-ADP” value is 922 ± 10 cm · hour^−1 × 10^−7 and the “Velocity measured/Control velocity, d-ADP” value stood at 4.9. In data set [1] (setting [5]), the “Transport velocity of d-ADP (10× conc.)” value stood at 498 ± 8 cm · hour^−1 × 10^−7 and the “Velocity measured/Control velocity, d-ADP (10× conc.)” value is 6.1. For the same molecule, in data set [1] (in presence of 0.008% (w/v) lysosphingomyelin), the “Increase of EB-1053 transport (times faster)” value turned out to be 12 times. Further, in data set [1] (setting [6]), the “Transport velocity of GlySar” value is reported as 35.4 ± 2.4 cm · hour^−1 × 10^−7 and the “Velocity measured/Control velocity, GlySar” value was determined as 1. In addition, the “Transport velocity of GlySar” value in data set [1] (nutrient GlySar 10 μM, no bile, test lipid 0.02 wt. % (lysosphingomyelin 0.008 wt. %)) came to 79.7 ± 28.1 cm · hour^−1 × 10^−7. Further, in data set [1] (setting [7]), the “Transport velocity of caffeine” value is reported as 560 ± 29 cm · hour^−1 × 10^−7 and the “Velocity measured/Control velocity, caffeine” value was 1. The “Transport velocity of caffeine” value in data set [1] (nutrient caffeine 10 μM, no bile, test lipid 0.02 wt. % (lysosphingomyelin 0.008 wt. %)) stood at 559 ± 38 cm · hour^−1 × 10^−7. Moreover, in data set [1] (setting [8]), the “Transport velocity of cholesterol” value is listed as 1.25 (n = 1) cm · hour^−1 × 10^−7 and the “Velocity measured/Control velocity, cholesterol” value was determined as 1. In data set [1] (setting [9]), the “Transport velocity of mannitol” value is on record as 12.3 ± 1.8 cm · hour^−1 × 10^−7 and the “Velocity measured/Control velocity, mannitol” value is given as 1. Further, in data set [1] (nutrient mannitol 10 μM, no bile, test lipid 0.02 wt. % (lysosphingomyelin 0.008 wt. %)), the “Transport velocity of mannitol” value is reported as 120 ± 9 cm · hour^−1 × 10^−7. Also, in data set [1] (setting [10]), the “Transport velocity of testosterone” value was found to be 576 ± 24 cm · hour^−1 × 10^−7 and the “Velocity measured/Control velocity, testosterone” value turned out to be 1. Besides, in data set [1] (setting [11]), the “Transport velocity of testosterone” value came out at 536 ± 21 cm · hour^−1 × 10^−7 and the “Velocity measured/Control velocity, testosterone” value was 1. For the same molecule, the “Resistance between the apical and basolateral liquids” value in the data set on Caco-2 cell monolayers is given as “decrease”.

In the case of `CCCCCCCCCCCCCC[C@@H](O)[C@@H](O)[C@@H](N)CO` [phytosphingosine], the “Lipid still demonstrated in the apical liquid after 120 minutes” value in the data set with Caco-2 cell layers was found to be 12.9 µg/mL. In addition, the “Lipid in the basolateral liquids (apical to basolateral transport of lipid)” value in the data set with Caco-2 cell layers (120 minutes) is “no lipids could be demonstrated”.

The values above are taken from patent publication US20060128666A1, “Use of sphingomyelin and lyso-sphingomyelin as absorption enhancers” (priority 2003, published 2006).
